Assay results reported in ChEMBL document CHEMBL1150754, “Chemical and pharmaceutical studies on medicinal plants in Paraguay. Geraniin, an angiotensin-converting enzyme inhibitor from "paraparai mi," Phyllanthus niruri” (J Nat Prod, 1988).
pIC50: −log10 of the molar value.

target: Angiotensin-converting enzyme (Homo sapiens, UniProt P12821); assay: Inhibition of ACE by fluorometric assay
Sequence (P12821 whole entry): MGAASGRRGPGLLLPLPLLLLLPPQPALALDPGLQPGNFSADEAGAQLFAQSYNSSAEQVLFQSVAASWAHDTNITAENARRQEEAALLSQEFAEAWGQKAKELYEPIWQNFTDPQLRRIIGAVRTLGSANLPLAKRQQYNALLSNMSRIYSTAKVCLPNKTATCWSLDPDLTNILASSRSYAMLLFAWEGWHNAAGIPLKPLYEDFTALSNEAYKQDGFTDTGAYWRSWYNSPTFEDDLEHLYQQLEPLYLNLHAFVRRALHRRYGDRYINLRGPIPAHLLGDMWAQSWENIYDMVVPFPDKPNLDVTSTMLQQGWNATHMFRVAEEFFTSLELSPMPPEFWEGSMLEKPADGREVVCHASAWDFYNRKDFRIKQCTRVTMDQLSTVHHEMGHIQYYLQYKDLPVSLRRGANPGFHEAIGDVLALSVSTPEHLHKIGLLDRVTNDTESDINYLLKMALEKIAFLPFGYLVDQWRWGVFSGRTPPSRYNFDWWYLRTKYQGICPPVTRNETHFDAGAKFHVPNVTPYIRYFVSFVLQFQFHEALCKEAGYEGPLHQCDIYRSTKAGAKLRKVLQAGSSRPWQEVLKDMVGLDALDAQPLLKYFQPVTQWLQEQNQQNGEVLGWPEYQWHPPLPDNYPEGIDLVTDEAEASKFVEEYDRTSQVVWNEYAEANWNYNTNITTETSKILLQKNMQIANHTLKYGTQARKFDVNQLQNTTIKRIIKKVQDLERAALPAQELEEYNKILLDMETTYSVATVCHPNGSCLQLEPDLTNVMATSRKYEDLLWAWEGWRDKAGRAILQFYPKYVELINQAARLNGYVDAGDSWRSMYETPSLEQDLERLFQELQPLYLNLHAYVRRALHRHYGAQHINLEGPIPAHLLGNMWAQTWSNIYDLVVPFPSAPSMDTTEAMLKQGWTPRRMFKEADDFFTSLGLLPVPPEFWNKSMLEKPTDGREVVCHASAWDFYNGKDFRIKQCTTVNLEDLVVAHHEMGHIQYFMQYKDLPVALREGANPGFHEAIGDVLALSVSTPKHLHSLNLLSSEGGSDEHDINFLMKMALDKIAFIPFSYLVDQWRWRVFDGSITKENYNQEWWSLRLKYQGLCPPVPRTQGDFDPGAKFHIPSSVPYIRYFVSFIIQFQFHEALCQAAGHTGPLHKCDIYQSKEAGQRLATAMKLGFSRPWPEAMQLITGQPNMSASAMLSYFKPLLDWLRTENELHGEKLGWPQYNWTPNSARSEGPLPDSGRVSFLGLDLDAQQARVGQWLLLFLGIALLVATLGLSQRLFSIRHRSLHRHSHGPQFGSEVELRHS

`O=C(O[C@@H]1O[C@@H]2COC(=O)c3cc(O)c(O)c(O)c3-c3c(cc(O)c(O)c3O)C(=O)O[C@H]([C@H]1O)[C@@H]2O)c1cc(O)c(O)c(O)c1` [CORILAGIN] was tested. Which pIC50 did it give?
Its pIC50 is 2.43.

How did the pIC50 turn out when `O=c1oc2c(O)c(O)cc3c(=O)oc4c(O)c(O)cc1c4c23` [ELLAGIC ACID] was run?
The pIC50 was 2.30.

How did the pIC50 turn out when `O=C(O)c1cc(O)c(O)c(O)c1` [GALLIC ACID] was run?
The pIC50 was 2.11.

`O=C1O[C@H]2[C@@H]3OC(=O)c4cc(O)c(O)c(O)c4-c4c(cc(O)c(O)c4O)C(=O)OC[C@H]2O[C@@H](OC(=O)c2cc(O)c(O)c(O)c2)[C@@H]3OC(=O)c2cc(O)c(O)c3c2[C@@H]2C1=CC(=O)[C@](O)(O3)C2(O)O` [GERANIIN] was tested. Which pIC50 did it give?
The pIC50 was 3.40.
